Laboratory results reported in US10590078B2, “Sodium channel blockers” (Daewoong Pharmaceutical Co., Ltd., priority 2015, dated 2020).
pIC50: −log10 of the molar value. Read-outs that look alike come from different tables or passages of the source.

Molecular target: human sodium ion channel 1.7 (hNav1.7) (Homo sapiens, UniProt Q15858)
Test: Blocking effect against sodium ion channel Nav1.7, IonFlux16 auto patch clamp in hNav1.7 HEK293 cells
Assay type: cell-based
[1] = hNav1.7 HEK293 cells, inhibition of peak current after 50 seconds treatment, eight concentrations, read-out: IC50

Sequence of human sodium ion channel 1.7 (hNav1.7) (Q15858 whole entry): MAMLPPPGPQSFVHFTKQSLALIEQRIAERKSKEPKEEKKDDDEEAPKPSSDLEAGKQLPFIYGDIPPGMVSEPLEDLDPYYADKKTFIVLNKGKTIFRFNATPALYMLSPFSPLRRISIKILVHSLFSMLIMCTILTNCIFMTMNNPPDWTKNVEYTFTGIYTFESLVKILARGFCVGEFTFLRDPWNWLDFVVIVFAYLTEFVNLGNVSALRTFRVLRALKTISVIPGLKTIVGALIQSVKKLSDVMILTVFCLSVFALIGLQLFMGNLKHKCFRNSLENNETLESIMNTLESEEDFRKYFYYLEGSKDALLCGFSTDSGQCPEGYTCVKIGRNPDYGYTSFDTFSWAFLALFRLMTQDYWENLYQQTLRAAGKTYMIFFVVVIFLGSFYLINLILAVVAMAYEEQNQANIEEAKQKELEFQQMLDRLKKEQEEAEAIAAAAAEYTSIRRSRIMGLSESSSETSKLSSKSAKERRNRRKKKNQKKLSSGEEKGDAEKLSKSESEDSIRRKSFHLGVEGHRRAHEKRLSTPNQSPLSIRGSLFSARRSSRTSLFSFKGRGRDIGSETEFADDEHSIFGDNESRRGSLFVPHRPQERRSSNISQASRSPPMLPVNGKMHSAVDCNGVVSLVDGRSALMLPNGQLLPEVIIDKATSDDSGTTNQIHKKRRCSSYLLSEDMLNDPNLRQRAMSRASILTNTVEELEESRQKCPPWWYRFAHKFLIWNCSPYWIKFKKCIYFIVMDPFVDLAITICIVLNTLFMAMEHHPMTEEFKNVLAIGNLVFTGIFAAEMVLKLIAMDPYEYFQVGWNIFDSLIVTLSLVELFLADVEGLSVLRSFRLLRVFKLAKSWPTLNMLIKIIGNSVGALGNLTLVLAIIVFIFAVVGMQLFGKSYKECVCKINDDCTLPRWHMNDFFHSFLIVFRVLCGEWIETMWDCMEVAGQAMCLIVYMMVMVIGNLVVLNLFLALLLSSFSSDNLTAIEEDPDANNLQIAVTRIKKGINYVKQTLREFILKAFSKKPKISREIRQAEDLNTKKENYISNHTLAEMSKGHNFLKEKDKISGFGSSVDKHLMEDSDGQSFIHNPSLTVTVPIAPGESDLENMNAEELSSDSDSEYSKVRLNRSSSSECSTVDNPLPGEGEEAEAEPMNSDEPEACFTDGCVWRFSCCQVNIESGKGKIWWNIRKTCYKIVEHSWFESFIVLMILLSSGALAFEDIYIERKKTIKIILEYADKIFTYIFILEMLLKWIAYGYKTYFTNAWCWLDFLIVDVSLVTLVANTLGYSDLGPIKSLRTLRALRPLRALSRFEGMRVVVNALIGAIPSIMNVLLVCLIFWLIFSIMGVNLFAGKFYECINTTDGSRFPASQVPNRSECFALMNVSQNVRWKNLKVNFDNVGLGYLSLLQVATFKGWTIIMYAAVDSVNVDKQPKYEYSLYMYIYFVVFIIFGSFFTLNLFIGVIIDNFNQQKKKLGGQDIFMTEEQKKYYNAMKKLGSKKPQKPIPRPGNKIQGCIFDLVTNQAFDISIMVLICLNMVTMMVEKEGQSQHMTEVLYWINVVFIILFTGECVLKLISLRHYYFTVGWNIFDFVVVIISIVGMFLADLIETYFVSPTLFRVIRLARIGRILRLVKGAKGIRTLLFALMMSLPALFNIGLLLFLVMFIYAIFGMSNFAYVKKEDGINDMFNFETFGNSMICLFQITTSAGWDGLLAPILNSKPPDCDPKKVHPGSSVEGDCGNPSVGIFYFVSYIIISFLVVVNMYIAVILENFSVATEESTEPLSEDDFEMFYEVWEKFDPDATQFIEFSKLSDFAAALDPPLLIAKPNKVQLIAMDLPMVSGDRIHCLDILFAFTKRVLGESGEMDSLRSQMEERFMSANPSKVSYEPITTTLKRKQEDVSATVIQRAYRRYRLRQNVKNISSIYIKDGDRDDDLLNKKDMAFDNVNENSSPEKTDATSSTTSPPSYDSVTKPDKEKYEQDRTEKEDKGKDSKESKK

| SMILES | pIC50 [1] | pIC50 |
| --- | --- | --- |
| CS(=O)(=O)NC(=O)c1cc(Cl)c(-n2cc(-c3cccc(C#N)c3)c3cc(Cl)cnc32)cc1F [Example 194, 5-chloro-4-(5-chloro-3-(3-cyanophenyl)-1H-pyrrolo[2,3-b]pyridin-1-yl)-2-fluoro-N-(methylsulfonyl)benzamide] | 6.32 |  |
| CC(C)COc1ccc2c(cnn2-c2cc(F)c(C(=O)NS(C)(=O)=O)cc2Cl)c1 [Example 41, 5-chloro-2-fluoro-4-(5-isobutoxy-1H-indazol-1-yl)-N-(methylsulfonyl)benzamide] | 5.20 |  |
| CS(=O)(=O)NC(=O)c1cc(Cl)c(-n2nc(Cl)c3cc(-c4cc(Cl)ccc4F)ccc32)cc1F [Example 254, 5-chloro-4-(3-chloro-5-(5-chloro-2-fluorophenyl)-1H-indazol-1-yl)-2-fluoro-N-(methylsulfonyl)benzamide] | 6.38 |  |
| CS(=O)(=O)NC(=O)c1cc(Cl)c(-n2nc(/C=C/c3ccccn3)c3cc(Cl)ccc32)cc1F [Example 134, (E)-5-chloro-4-(5-chloro-3-(2-(pyridin-2-yl)vinyl)-1H-indazol-1-yl)-2-fluoro-N-(methylsulfonyl)benzamide] | 5.66 |  |
| CS(=O)(=O)NC(=O)c1cc(Cl)c(-n2cc(-c3ccc(F)cc3)c3cc(Cl)cnc32)cc1F [Example 185, 5-chloro-4-(5-chloro-3-(4-fluorophenyl)-1H-pyrrolo[2,3-b]pyridin-1-yl)-2-fluoro-N-(methylsulfonyl)benzamide] | 7.10 |  |
| O=c1[nH]nc(-c2cc(Cl)c(-n3nc(-c4ccc(Cl)cc4F)c4cc(Cl)ccc43)cc2F)[nH]1 [Example 291, 5-(5-chloro-4-(5-chloro-3-(4-chloro-2-fluorophenyl)-1H-indazol-1-yl)-2-fluorophenyl)-2,4-dihydro-3H-1,2,4-triazol-3-one] | 4.96 |  |
| CS(=O)(=O)NC(=O)c1cc(Cl)c(-n2cc(-c3cccc(Cl)c3F)c3cccnc32)cc1F [Example 222, 5-chloro-4-(3-(3-chloro-2-fluorophenyl)-1H-pyrrolo[2,3-b]pyridin-1-yl)-2-fluoro-N-(methylsulfonyl)benzamide] | 6.39 |  |
| CS(=O)(=O)NC(=O)c1ccc(-n2nc(-c3cccc(C#N)c3)c3cc(F)ccc32)c(C#N)c1 [Example 168, 3-cyano-4-(3-(3-cyanophenyl)-5-fluoro-1H-indazol-1-yl)-N-(methylsulfonyl)benzamide] | < 5.00 |  |
| O=S(=O)(Nc1ncns1)c1cc(F)c(-n2nc(Cl)c3cc(C(F)(F)F)ccc32)cc1F [Example 281, 4-(3-chloro-5-(trifluoromethyl)-1H-indazol-1-yl)-2,5-difluoro-N-(1,2,4-thiadiazol-5-yl)benzenesulfonamide] | 5.00 to 5.52 |  |
| COc1ccccc1-c1nn(-c2cc(Cl)c(C(=O)NS(C)(=O)=O)cc2F)c2ccc(Cl)cc12 [Example 107, 2-chloro-4-(5-chloro-3-(2-methoxyphenyl)-1H-indazol-1-yl)-5-fluoro-N-(methylsulfonyl)benzamide] | 6.09 |  |
| Cc1nn(-c2cc(F)c(C(=O)NS(C)(=O)=O)cc2Cl)c2ccc([N+](=O)[O-])cc12 [Example 14, 5-chloro-2-fluoro-4-(3-methyl-5-nitro-1H-indazol-1-yl)-N-(methylsulfonyl)benzamide] | 5.00 to 5.52 |  |
| CS(=O)(=O)NC(=O)c1cc(Cl)c(-n2nc(Cl)c3cc(-c4ccc(F)cc4F)ccc32)cc1F [Example 243, 5-chloro-4-(3-chloro-5-(2,4-difluorophenyl)-1H-indazol-1-yl)-2-fluoro-N-(methylsulfonyl)benzamide] | 6.76 |  |
| CS(=O)(=O)NC(=O)c1cc(Cl)c(-n2ncc3c(Cl)c(F)ccc32)cc1F [Example 15, 5-chloro-4-(4-chloro-5-fluoro-1H-indazol-1-yl)-2-fluoro-N-(methylsulfonyl)benzamide] | 5.51 |  |
| O=S(=O)(Nc1cscn1)c1cc(Cl)c(-n2nc(-c3cn[nH]c3)c3cc(Cl)ccc32)cc1F [Example 284, 5-chloro-4-(5-chloro-3-(1H-pyrazol-4-yl)-1H-indazol-1-yl)-2-fluoro-N-(thiazol-4-yl)benzenesulfonamide] | < 5.00 |  |
| CS(=O)(=O)NC(=O)c1cc(Cl)c(-n2nc(-c3cc(F)c(F)c(F)c3)c3cc(Cl)ccc32)cc1F [Example 77, 5-chloro-4-(5-chloro-3-(3,4,5-trifluorophenyl)-1H-indazol-1-yl)-2-fluoro-N-(methylsulfonyl)benzamide] |  | 7.70 |
| COc1ncccc1-c1nn(-c2cc(F)c(C(=O)NS(C)(=O)=O)cc2Cl)c2ccc(Cl)cc12 [Example 57, 5-chloro-4-(5-chloro-3-(2-methoxypyridin-3-yl)-1H-indazol-1-yl)-2-fluoro-N-(methylsulfonyl)benzamide] | 6.91 |  |
| CS(=O)(=O)NC(=O)c1cc(Cl)c(-n2cc(-c3ccc(F)cc3F)c3cc(Cl)cnc32)cc1F [Example 186, 5-chloro-4-(5-chloro-3-(2,4-difluorophenyl)-1H-pyrrolo[2,3-b]pyridin-1-yl)-2-fluoro-N-(methylsulfonyl)benzamide] | 7.10 |  |
| Cn1cc(-c2nn(-c3cc(F)c(C(=O)NS(C)(=O)=O)cc3Cl)c3ccc(Cl)cc23)ccc1=O [Example 130, 5-chloro-4-(5-chloro-3-(1-methyl-6-oxo-1,6-dihydropyridin-3-yl)-1H-indazol-1-yl)-2-fluoro-N-(methylsulfonyl)benzamide] | < 5.00 |  |

| SMILES | pIC50 [1] | pIC50 |
| --- | --- | --- |
| CS(=O)(=O)NC(=O)c1cc(Cl)c(-n2nc(Cl)c3cc(Cl)ncc32)cc1F [Example 11, 5-chloro-4-(3,5-dichloro-1H-pyrazolo[3,4-c]pyridin-1-yl)-2-fluoro-N-(methylsulfonyl)benzamide] | < 5.00 |  |
| CS(=O)(=O)NC(=O)c1cc(F)c(-n2nc(-c3cccc(C(F)(F)F)c3)c3cc(Cl)ccc32)cc1Cl [Example 110, 2-chloro-4-(5-chloro-3-(3-(trifluoromethyl)phenyl)-1H-indazol-1-yl)-5-fluoro-N-(methylsulfonyl)benzamide] | 6.57 |  |
| CS(=O)(=O)NC(=O)c1ccc(-n2nc(-c3ccccc3C(F)(F)F)c3cc(Cl)ccc32)c(C#N)c1 [Example 97, 4-(5-chloro-3-(2-(trifluoromethyl)phenyl)-1H-indazol-1-yl)-3-cyano-N-(methylsulfonyl)benzamide] | 6.77 |  |
| COc1ccc(-c2ccc3c(c2)c(Cl)nn3-c2cc(F)c(C(=O)NS(C)(=O)=O)cc2Cl)cc1 [Example 248, 5-chloro-4-(3-chloro-5-(4-methoxyphenyl)-1H-indazol-1-yl)-2-fluoro-N-(methylsulfonyl)benzamide] | 7.06 |  |
| COc1ccccc1-c1nn(-c2ccc(C(=O)NS(C)(=O)=O)cc2F)c2ccc(Cl)cc12 [Example 117, 4-(5-chloro-3-(2-methoxyphenyl)-1H-indazol-1-yl)-3-fluoro-N-(methylsulfonyl)benzamide] | 6.19 |  |
| Cc1nn(-c2cc(F)c(S(=O)(=O)Nc3cscn3)cc2Cl)c2ccc(Cl)cc12 [Example 277, 5-chloro-4-(5-chloro-3-methyl-1H-indazol-1-yl)-2-fluoro-N-(thiazol-4-yl)benzenesulfonamide] | 6.48 |  |
| CS(=O)(=O)NC(=O)c1ccc(-n2nc(-c3ccc(C(F)(F)F)cc3)c3cc(Cl)ccc32)c(C#N)c1 [Example 99, 4-(5-chloro-3-(4-(trifluoromethyl)phenyl)-1H-indazol-1-yl)-3-cyano-N-(methylsulfonyl)benzamide] | 5.87 |  |
| CS(=O)(=O)NC(=O)c1cc(Cl)c(-n2nc(Cl)c3cc([N+](=O)[O-])ccc32)cc1F [Example 23, 5-chloro-4-(3-chloro-5-nitro-1H-indazol-1-yl)-2-fluoro-N-(methylsulfonyl)benzamide] | 6.44 |  |
| Cc1ncc(-c2nn(-c3cc(F)c(C(=O)NS(C)(=O)=O)cc3Cl)c3ccc(Cl)cc23)s1 [Example 91, 5-chloro-4-(5-chloro-3-(2-methylthiazol-5-yl)-1H-indazol-1-yl)-2-fluoro-N-(methylsulfonyl)benzamide] | 5.71 |  |
| CS(=O)(=O)NC(=O)c1cc(Cl)c(-n2nc(-c3c(F)cccc3Cl)c3cc(F)ccc32)cc1F [Example 162, 5-chloro-4-(3-(2-chloro-6-fluorophenyl)-5-fluoro-1H-indazol-1-yl)-2-fluoro-N-(methylsulfonyl)benzamide] | 6.19 |  |
| CS(=O)(=O)NC(=O)c1ccc(-n2nc(-c3ccc(C(F)(F)F)cc3)c3cc(Cl)ccc32)c(F)c1 [Example 122, 4-(5-chloro-3-(4-(trifluoromethyl)phenyl)-1H-indazol-1-yl)-3-fluoro-N-(methylsulfonyl)benzamide] | 6.51 |  |
| O=C(Nc1nccs1)c1cc(Cl)c(-n2nc(-c3ccc(Cl)cc3F)c3cc(Cl)ccc32)cc1F [Example 294, 5-chloro-4-(5-chloro-3-(4-chloro-2-fluorophenyl)-1H-indazol-1-yl)-2-fluoro-N-(thiazol-2-yl)benzamide] | < 5.00 |  |
| COc1ccc(-c2nn(-c3ccc(C(=O)NS(C)(=O)=O)cc3C#N)c3ccc(Cl)cc23)cc1 [Example 93, 4-(5-chloro-3-(4-methoxyphenyl)-1H-indazol-1-yl)-3-cyano-N-(methylsulfonyl)benzamide] | 6.65 |  |
| CS(=O)(=O)NC(=O)c1cc(Cl)c(-n2cc(Cl)c3c(OCc4ccccc4)cccc32)cc1F [Example 270, 4-(4-(benzyloxy)-3-chloro-1H-indol-1-yl)-5-chloro-2-fluoro-N-(methylsulfonyl)benzamide] | 6.73 |  |
| CS(=O)(=O)NC(=O)c1cc(Cl)c(-n2nc(-c3ccc(F)c(F)c3)c3cc(Cl)ccc32)cc1F [Example 75, 5-chloro-4-(5-chloro-3-(3,4-difluorophenyl)-1H-indazol-1-yl)-2-fluoro-N-(methylsulfonyl)benzamide] | 6.74 |  |
| CS(=O)(=O)NC(=O)c1cc(Cl)c(-n2nc(-c3cccnc3)c3ccccc32)cc1F [Example 180, 5-chloro-2-fluoro-N-(methylsulfonyl)-4-(3-(pyridin-3-yl)-1H-indazol-1-yl)benzamide] | < 5.00 |  |
| N#Cc1cc(Cl)c(-n2nc(-c3ccc(Cl)cc3F)c3cc(Cl)ccc32)cc1F [Example 288, 5-chloro-4-(5-chloro-3-(4-chloro-2-fluorophenyl)-1H-indazol-1-yl)-2-fluorobenzonitrile] | < 5.00 |  |
